Here are results for one compound from patent publication EP2424865B1 (Boehringer Ingelheim International GmbH, priority 2009, dated 2010).

For one assay, the target named is 11β-HSD1 (Homo sapiens, UniProt P28845). The assay can be described thus: biochemical. The conditions noted are these: read-out: Average % control inhibition at 100 nM.
In assay [1] the target is human recombinant cytochrome P450 2C9 (Homo sapiens, UniProt P11712). As to the kind of experiment: Biological Test Example 7: CYP2C9 inhibition ([O-methyl-14C]-Naproxen O-demethylation).
human recombinant cytochrome P450 2C9, sequence (P11712 whole entry): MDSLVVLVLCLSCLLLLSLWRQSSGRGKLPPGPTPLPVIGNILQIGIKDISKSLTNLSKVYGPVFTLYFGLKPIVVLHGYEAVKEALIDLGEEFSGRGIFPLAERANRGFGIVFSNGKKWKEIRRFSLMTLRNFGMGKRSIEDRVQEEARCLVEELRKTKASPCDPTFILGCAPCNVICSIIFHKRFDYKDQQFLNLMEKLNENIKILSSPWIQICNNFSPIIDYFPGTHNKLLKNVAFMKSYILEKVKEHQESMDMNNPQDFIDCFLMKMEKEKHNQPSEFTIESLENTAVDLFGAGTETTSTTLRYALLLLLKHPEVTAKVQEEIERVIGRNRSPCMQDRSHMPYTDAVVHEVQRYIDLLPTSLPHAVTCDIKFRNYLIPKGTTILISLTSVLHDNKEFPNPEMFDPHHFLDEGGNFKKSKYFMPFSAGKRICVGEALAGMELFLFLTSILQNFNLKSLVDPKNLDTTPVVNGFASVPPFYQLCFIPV
Assay [2] has as its target human recombinant cytochrome P450 2C19 (Homo sapiens, UniProt P33261). As to the kind of experiment: Biological Test Example 8: CYP2C19 inhibition ([N-methyl-14C]-Diazepam N-demethylation).
Assay [3] deals with human recombinant cytochrome P450 3A4 (Homo sapiens, UniProt P08684).
human recombinant cytochrome P450 3A4, sequence (P08684 whole entry): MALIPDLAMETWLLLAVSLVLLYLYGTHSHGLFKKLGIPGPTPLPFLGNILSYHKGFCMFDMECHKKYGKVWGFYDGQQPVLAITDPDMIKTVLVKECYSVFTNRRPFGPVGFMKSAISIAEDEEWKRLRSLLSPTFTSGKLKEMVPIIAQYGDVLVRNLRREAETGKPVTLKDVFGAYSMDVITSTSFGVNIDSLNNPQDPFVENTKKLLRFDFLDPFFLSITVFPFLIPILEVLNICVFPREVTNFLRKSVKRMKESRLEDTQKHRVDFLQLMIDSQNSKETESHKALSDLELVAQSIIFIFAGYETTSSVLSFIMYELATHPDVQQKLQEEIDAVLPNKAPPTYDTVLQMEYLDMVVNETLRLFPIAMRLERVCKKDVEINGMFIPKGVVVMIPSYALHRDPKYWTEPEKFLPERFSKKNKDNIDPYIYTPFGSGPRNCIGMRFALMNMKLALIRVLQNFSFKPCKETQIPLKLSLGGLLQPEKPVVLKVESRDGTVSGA

The inhibition is the share of the control response that was lost under treatment. One may read the IC50 as the concentration needed to halve the response being measured.

11β-HSD1, sequence (P28845 whole entry): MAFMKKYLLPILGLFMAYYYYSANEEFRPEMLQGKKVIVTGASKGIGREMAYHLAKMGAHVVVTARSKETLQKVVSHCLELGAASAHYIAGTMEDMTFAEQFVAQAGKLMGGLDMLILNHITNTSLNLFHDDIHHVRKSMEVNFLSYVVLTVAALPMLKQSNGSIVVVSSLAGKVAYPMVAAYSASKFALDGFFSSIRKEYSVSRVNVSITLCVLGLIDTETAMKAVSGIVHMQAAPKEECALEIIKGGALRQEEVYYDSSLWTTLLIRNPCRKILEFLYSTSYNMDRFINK
human recombinant cytochrome P450 2C19, sequence (P33261 whole entry): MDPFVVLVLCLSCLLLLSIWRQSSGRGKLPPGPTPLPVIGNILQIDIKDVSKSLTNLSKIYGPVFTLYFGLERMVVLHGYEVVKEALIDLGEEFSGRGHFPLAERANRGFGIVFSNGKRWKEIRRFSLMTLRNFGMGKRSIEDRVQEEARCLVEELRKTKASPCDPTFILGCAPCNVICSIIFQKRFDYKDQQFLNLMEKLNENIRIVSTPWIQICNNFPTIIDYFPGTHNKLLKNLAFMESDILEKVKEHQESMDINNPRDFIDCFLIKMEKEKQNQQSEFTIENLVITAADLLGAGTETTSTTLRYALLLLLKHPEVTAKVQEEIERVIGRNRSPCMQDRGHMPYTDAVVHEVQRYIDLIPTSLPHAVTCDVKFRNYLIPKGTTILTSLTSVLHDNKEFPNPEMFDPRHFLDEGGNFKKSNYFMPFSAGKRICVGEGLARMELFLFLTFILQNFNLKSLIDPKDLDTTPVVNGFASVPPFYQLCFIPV

As to `C[C@@H](c1ccc(-c2ccc(=O)n(CC3CC3)c2)cc1)N1CC[C@](CC(C)(C)O)(c2ccccc2)OC1=O` [Example 76, 3-{(S)1-[4-(1-Cyclopropylmethyl-6-oxo-1,6-dihydro-pyridin-3-yl)-phenyl]-ethyt}-(S)-6-(2-hydroxy-2-methyl-propyl)-6-phenyl-[1,3]oxazinan-2-one], the inhibition at 0.1 µM on 11β-HSD1 is 17%. Also, the figures for the IC50 in assay [1], in assay [2] and in assay [3] were 4 µM, 9 µM and 10 µM, respectively.
